Experimental data published in ChEMBL document CHEMBL1127188, “Phenylphosphonate monoester analogs of cocaine. Potential haptens for the generation of catalytic antibodies” (Bioorg Med Chem Lett, 1993).

Species on record: Mus musculus
Assay: Compound was tested for its ability to inhibit mAb (monoclonal antibody) binding to immobilized ova-10d; inhibited the binding of seven of nine mAbs to immobilized ova-10d, A - The IC50 of these seven mAb ranged from 15 to 350 uM
Type: functional, organism-based

COC(=O)C1C(OP(=O)(O)c2ccccc2)CC2CCC1N2C (stereo unspecified)
IC50: A
